Test results reported in EP3035931B1, “COMPOSITION FOR REDUCING NERVOUS SYSTEM INJURY AND METHOD OF MAKING AND USE THEREOF” (Morehouse School of Medicine, priority 2013, dated 2015).
Like-named read-outs stand apart in the source and are kept apart here.

How the values were obtained:
ASICs = biological target: T1, ASICs (Mus musculus, UniProt Q6NXK8); assay type: cell-based; details: cultured mouse cortical neurons; n=8; read-out: IC50, dose-dependent blockade of ASIC currents
T1 sequence (Q6NXK8 1-526): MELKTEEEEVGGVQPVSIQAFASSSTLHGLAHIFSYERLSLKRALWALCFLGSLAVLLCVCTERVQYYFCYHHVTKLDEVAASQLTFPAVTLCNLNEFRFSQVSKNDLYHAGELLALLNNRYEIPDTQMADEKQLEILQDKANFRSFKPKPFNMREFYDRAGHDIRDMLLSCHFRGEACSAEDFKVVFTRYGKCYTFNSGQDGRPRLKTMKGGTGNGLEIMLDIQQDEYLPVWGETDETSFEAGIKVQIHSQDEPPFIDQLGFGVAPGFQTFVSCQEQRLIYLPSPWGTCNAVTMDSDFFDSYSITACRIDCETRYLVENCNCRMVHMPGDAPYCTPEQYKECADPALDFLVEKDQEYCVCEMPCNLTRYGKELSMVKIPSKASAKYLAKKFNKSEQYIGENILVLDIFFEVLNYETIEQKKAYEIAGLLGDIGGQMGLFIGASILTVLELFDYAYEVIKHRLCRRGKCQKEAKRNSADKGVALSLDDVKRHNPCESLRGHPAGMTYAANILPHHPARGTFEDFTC
T1 sequence (Q925H0 1-512 partner): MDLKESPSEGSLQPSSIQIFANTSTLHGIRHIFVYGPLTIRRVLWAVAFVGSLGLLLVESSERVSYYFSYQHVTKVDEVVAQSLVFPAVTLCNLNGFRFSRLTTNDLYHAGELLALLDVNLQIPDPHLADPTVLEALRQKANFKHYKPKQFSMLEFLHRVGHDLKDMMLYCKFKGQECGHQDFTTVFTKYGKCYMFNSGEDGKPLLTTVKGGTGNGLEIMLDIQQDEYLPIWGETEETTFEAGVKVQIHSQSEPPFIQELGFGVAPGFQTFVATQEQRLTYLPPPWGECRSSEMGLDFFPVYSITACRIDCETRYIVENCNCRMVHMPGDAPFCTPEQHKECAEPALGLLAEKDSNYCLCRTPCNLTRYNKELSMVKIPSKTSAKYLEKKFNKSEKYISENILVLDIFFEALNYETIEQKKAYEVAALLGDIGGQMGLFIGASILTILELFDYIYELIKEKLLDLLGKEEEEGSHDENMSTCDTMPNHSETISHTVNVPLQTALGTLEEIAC

cortical neurons = assay type: cell-based, mouse
Protocol: (§1) Background absorbance at 620 was subtracted.
Acid-induced injury was studied on neurons grown on 24-well plates incubated in either pH 7.4 or 6.0 ECF containing MK801, CNQX, and nimodipine; see FIG. 8. Cell injury was assayed by the measurement of lactate dehydrogenase (LDH) release (Koh and Choi, J. Neurosci., 1987, 20:83-90) at various time points (FIGS. 8A and 8B) and by fluorescent staining of alive/dead cells. Compared to neurons treated at pH 7.4, 1 hr acid incubation (pH 6.0) induced a time-dependent increase in LDH release (FIG. 8A). After 24 hr, 45.7% ± 5.4% of maximal LDH release was induced (n=25 wells). Continuous treatment at pH 6.0 induced greater cell injury (FIG. 8B, n=20).

ASIC1^-/- neurons = assay type: cell-based, mouse; details: ASIC1^-/- neurons; n=8 each
Protocol: Following anesthesia with halothane, cerebral cortices were dissected from E16 Swiss mice or P1 ASIC1+/+ and ASIC1-/- mice and incubated with 0.05% trypsin-EDTA for 10 min at 37° C. Tissues were then triturated with fire-polished glass pipettes and plated on poly-L-ornithine-coated 24-well plates or 25x25 mm glass coverslips at a density of 2.5x10^5 cells per well or 10^6 cells per coverslip. Neurons were cultured with MEM supplemented with 10% horse serum (for E16 cultures) or Neurobasal medium supplemented with B27 (for PI cultures) and used for electrophysiology and toxicity studies after 12 days. Glial growth was suppressed by addition of 5-fluoro-2-deoxyuridine and uridine, yielding cultured cells with 90% neurons as determined by NeuN and GFAP staining (data not shown).
as §1
. […] . In contrast to acid incubation, 1 hr treatment of ASIC1^-/- neurons with 1 mM NMDA+10 µM glycine (in Mg^2+-free [pH 7.4] ECF) induced 84.8% ± 1.4% of maximal LDH release at 24 hr (n=4, FIG. 9C), indicating normal response to other cell injury processes.

[1] = assay type: in vivo, rats; details: n=11
[2] = Mouse 60 min MCAO, intravenous injection, infarct volume; assay type: in vivo; details: mice, intravenous injection 1, 3 or 5 hours after MCAO, FIG. 19
[3] = Efficacious plasma and brain concentration in mice; assay type: in vivo
Text: It is thus estimated that only a 10-fold increase in potency is necessary to achieve efficacious concentrations that are suitable for an acute therapeutic for stroke in humans. […]

Na^+/Ca^2+ ion exchanger = details: cited from earlier work
ASIC1a = biological target: T2, ASIC1a (Homo sapiens, UniProt P78348); assay: Blockade of ASIC 1a current expressed in CHO cells; assay type: cell-based; design: expressed in transfected cells; host or cells: CHO; details: CHO cells, FIG. 16
T2 sequence (P78348 1-528): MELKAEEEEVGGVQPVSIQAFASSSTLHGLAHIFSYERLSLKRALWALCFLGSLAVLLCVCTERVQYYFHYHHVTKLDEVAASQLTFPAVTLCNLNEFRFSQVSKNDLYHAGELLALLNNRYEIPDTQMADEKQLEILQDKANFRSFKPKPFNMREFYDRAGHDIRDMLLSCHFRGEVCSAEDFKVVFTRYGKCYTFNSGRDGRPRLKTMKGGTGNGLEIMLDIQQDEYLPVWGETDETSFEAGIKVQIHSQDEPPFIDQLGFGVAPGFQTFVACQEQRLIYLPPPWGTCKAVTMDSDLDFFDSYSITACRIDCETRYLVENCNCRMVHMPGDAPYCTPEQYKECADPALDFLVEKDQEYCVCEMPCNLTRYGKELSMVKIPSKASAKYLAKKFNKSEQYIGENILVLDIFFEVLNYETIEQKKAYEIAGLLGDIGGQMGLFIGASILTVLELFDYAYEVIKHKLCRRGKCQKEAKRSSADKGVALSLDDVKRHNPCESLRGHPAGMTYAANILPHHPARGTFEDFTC

[4] = Mouse 60 min MCAO, intracerebroventricular injection one hour after MCAO, infarct volume; details: mice, evaluated one day after ischemia induction, FIG. 18

## N=C(N)NC(=O)c1nc(Cl)c(N)nc1N [amiloride]
ASICs
  IC50: 16.4 ± 4.1 µM
Cortical neurons; 100 µM amiloride 10 min before and during 1 hr pH 6.0 incubation, without blocker 45.3% ± 3.8%
  LDH release at 24 hr: 31.1% ± 2.5%
Cortical neurons; pH 6.0, n=8-12
  LDH release induced by 1 hr acid incubation of ASIC^+/+ neurons: reduced
Cortical neurons; pH 7.4 ECF for 1 hr
  baseline LDH release: did not affect
Cortical neurons; prolonged incubation (e.g., 5 hr), n=8
  LDH release, prolonged incubation with amiloride alone: increased LDH release
ASIC1^-/- neurons
  effect on acid-induced LDH release after knockout of the ASIC1 gene: eliminated the effect
[1]
  infarct volume: 229.7 ± 41.1 mm^3
[2]
  infarct volume: effectively reduce infarct volume
[3]; icv dose of 1 µl x 500 µM
  total brain concentration at which efficacy can be achieved: 12.5 µM
[3]; iv dose of 50 µl x 1mM
  plasma concentration at which efficacy can be achieved: 32.5 µM
Na^+/Ca^2+ ion exchanger
  IC50: 1.1 mM
ASIC1a
  block of ASIC1a current: dose-dependent
[4]
  infarct volume: effectively reduce infarct volume
